Patent publication US9700578B2, “Use of nitrite salts for the treatment of cardiovascular conditions” (The United States of America as represented by the …, priority 2003, dated 2017)

What was measured:
[1] = test system: hepatic ischemia-reperfusion injury; assay: Hepatic ischemia-reperfusion (I/R) injury; type: in vivo, mice
Method: Carboxy-PTIO [2-(4-Carboxyphenyl)-4,4,5,5-tetramethylimidazoline-1-oxyl-3-oxide potassium salt], a direct intravascular NO scavenger, was utilized to inhibit NO dependent effects following hepatic I/R injury. Carboxy-PTIO (Alexis Biochemicals) was dissolved in phosphate buffered saline and administered intravenously at a dose of 1 mg/Kg in a volume of 50 μL at 30 minutes prior to hepatic ischemia Zinc(II) Deuteroporphyrin IX-2,4-bisethyleneglycol (ZnDBG) (Alexis Biochemicals), a heme oxygenase-1 inhibitor was injected i.p. at a dose of 10 mg/Kg in a volume of 50 μL at 30 minutes prior to the induction of hepatic ischemia.
All of the mice utilized in the present studies were C57BL6/J at 8-10 weeks of age obtained from the Jackson Laboratories (Bar Harbor, Me.). In additional experiments of hepatic I/R injury we utilized mice completely deficient (−/−) in endothelial nitric oxide synthase (eNOS). eNOS−/− mice were originally generously donated from Dr. Paul Huang (Mass. General Hospital) and generated in our breeding colony at LSU-Health Sciences Center. eNOS−/− mice were utilized at 8-10 weeks of age.
The hepatic I/R protocol is depicted in FIG. 6A and has been described previously (Hines et al., Biochem Biophys Res Commun 284:972-976, 2001; Hines et al., Am J Physiol Gastrointest Liver Physiol 284:G536-545, 2001). Mice were anesthetized with the combination of ketamine (100 mg/kg) and zylazine (8 mg/kg) and a midline laparotomy was performed to expose the liver. Mice were then injected with heparin (100 μg/kg, i.p.) to prevent blood clotting. The left lateral and median lobes of the liver were rendered ischemic by completely clamping the hepatic artery and the portal vein using microaneurysm clamps. This experimental model results in a segmental (70%) hepatic ischemia. This method of partial ischemia prevents mesenteric venous congestion by allowing portal decompression throughout the right and caudate lobes of the liver. The liver was then repositioned in the peritoneal cavity in its original location for 45 minutes. The liver was kept moist using gauze soaked in 0.9% normal saline. In addition, body temperature was maintained at 37° C. using a heat lamp and monitoring body temperature with a rectal temperature probe. Sham surgeries were identical except that hepatic blood flow was not reduced with a microaneurysm clamp. The duration of hepatic ischemia was 45 minutes in all experiments, following which the microaneurysm clamps were removed. The duration of hepatic reperfusion was 5 hours in the studies of serum liver transaminase levels (i.e., AST or ALT) and 24 hours for the studies of liver histopathology (such as hepatocellular infarction).
Serum samples were analyzed for aspartate aminotransferase (AST) and alanine aminotransferase (ALT) using a spectrophotometric method (Sigma Chemical Co., St. Louis, Mo.) (Harada et al., Proc Natl Acad Sci USA 100:739-744, 2003). These enzymes are liver specific and are released from the liver during injury (Hines et al., Biochem Biophys Res Commun 284:972-976, 2001; Hines et al., Am J Physiol Gastrointest Liver Physiol 284:G536-545, 2001). […]

forearm circulation [2] = assay: Sodium nitrite infusion into the brachial artery, forearm blood flow by venous-occlusion plethysmography
Excerpt: (§1) The protocol was approved by the Institutional Review Board of the National Heart, Lung and Blood Institute, and informed consent was obtained from all volunteer subjects. […] An additional 10 subjects returned three-six months later for a second series of experiments with low dose nitrite infusion. […] No volunteer subject was allowed to take any medication (oral contraceptive agents allowed), vitamin supplements, herbal preparations, nutriceuticals or other “alternative therapies” for at least one month prior to study and were not be allowed to take aspirin for one week prior to study.
(§2) Brachial artery and antecubital vein catheters were placed into the arm, with the intraarterial catheter connected to a pressure transducer for blood pressure measurements and an infusion pump delivering normal saline at 1 mL/min. After 20 minutes of rest, baseline arterial and venous blood samples were obtained and forearm blood flow measurements were made by strain gauge venous-occlusion plethysmography, as previously reported (Panza et al., Circulation, 87, 1468-74, 1993). A series of 7 blood flow measurements were averaged for each blood flow determination. A series of measurements termed Parts I and II were performed in randomized order to minimize a time effect on the forearm blood flow response during nitrite infusion.
(§3) Part I: Following 20 minutes of 0.9% NaCl (saline) solution infusion at 1 mL/min into the brachial artery, arterial and venous blood samples were obtained for the assays described below and forearm blood flow measured. Exercise was performed by repetitive hand-grip at one-third of the predetermined maximum grip strength using a hand-grip dynamometer (Technical Products Co.) (Gladwin et al., Proc Natl Acad Sci USA, 97, 9943-8, 2000; Gladwin et al., Proc Natl Acad Sci USA, 97, 11482-11487, 2000; Cannon et al., J Clin Invest, 108, 279-87, 2001). Each contraction lasted for 10 seconds followed by relaxation for 5 seconds. Following 5 minutes of exercise, forearm blood flow measurements were obtained during relaxation phases of exercise, and arterial and venous samples collected. Following a 20-minute rest period with continued infusion of saline into the brachial artery, repeated baseline blood samples and forearm blood flow measurements were obtained. L-NMMA was then infused at a rate of 1 mL/min (8 μmol/min) into the brachial artery. Following 5 minutes of L-NMMA infusion, forearm blood flow was measured, and arterial and venous blood samples obtained. Forearm exercise was then initiated in that arm during continued L-NMMA infusion. Forearm blood flow was measured and blood samples obtained after 5 minutes of exercise during continued L-NMMA infusion (FIG. 1).
(§4) Part II: After a 30 minute rest period with continued infusion of saline, baseline measurements were obtained, the saline infusion was then stopped, and infusion of nitrite (NaNO2 36 μmol/ml in 0.9% saline) at 1 ml/min was started. […] For the final 9 subjects studied, 0.01-0.03 mM sodium bicarbonate was added to the normal saline, so as to titrate pH to 7.0-7.4. The nitrite solution was light protected and nitrite levels and free NO gas in solution measured by reductive chemiluminescence after all experiments (Gladwin et al., J Biol Chem, 21, 21, 2002).

[3] = as above; details: human, in vivo
Excerpt: as §1, §2, §3, §4

[4] = 48 nmoles of nitrite, n=3; before 594±83
Method: For blood nitrite measurements, 160 μL of whole blood was mixed with 40 μL of a nitrite stabilizing solution containing 80 mM ferricyanide, 20 mM N-ethylmaleimide (NEM), 200 μL diethylenetriaminepentaacetic acid (DTPA), and 0.2% NP-40 (concentrations provided are after mixing with whole blood). The nitrite in whole blood was then measured using tri-idodide-based reductive chemiluminescence as previously described and validated (Gladwin et al., J Biol Chem 21:21, 2002; Yang et al., Free Radic Res 37:1-10, 2003).

forearm circulation [5] = details: concentrations of 200 μM in the forearm, Lauer et al.; cited from earlier work

## O=NO [sodium nitrite]
[1]; 1.2 nmoles added nitrite
  calculated blood level at which a protective effect was observed: 600 nM
[1]; 48 nmoles added nitrite, 2 mL blood volume
  calculated systemic concentration of peak effect on AST and ALT: 24 µM
[1]; 24 μM (48 nmoles), versus saline and nitrate treated animals
  hepatocellular injury (histopathology) at 24 hours of reperfusion: significantly reduced
[1]; 45 minutes ischemia, 24 hours reperfusion
  hepatocellular apoptosis (TUNEL): significantly (p<0.001) attenuated
[1]; heme oxygenase 1 inhibitor pre-treatment, nitrite 24 μM
  tissue injury in mice pre-treated with ZnDPBG (serum AST): significantly limited tissue injury
[1]; hepatic I/R
  near-physiological nitrite concentration with highly significant protective effects: 0.6 μM
[1]; intraperitoneal during hepatic ischemia, 45 min ischemia, 5 h reperfusion, nitrite 1.2-480 nmoles, nitrate 48 nmoles
  serum elevations of liver transaminases AST and ALT: dose-dependently limited
[1]; mouse, in vivo
  cytoprotection in eNOS deficient mice (serum AST): significant nitrite cytoprotection
Forearm circulation [2]; 360 nmoles per minute
  increase in blood flow, low dose: about 22%
Forearm circulation [2]; 400 nmol/mL at 1 mL/min for five minutes, 10 subjects, baseline 3.49±0.24
  forearm blood flow after low-dose nitrite infusion: 4.51±0.33 ml/min per 100 mL tissue
Forearm circulation [2]; 36 μmol/min into brachial artery
  systemic level of nitrite (contralateral arm): 16 µM
Forearm circulation [2]; 36 μmol/min into brachial artery, systemic nitrite 16 μM
  decrease of mean blood pressure: approximately 7 mm Hg
Forearm circulation [2]; 36 μmol/min, 5 min, at rest
  venous hemoglobin oxygen saturation, pO2 and pH versus pre-infusion values: significantly increased
Forearm circulation [2]; dose reduced 2-logs (360 nmoles per minute)
  forearm nitrite concentration, low dose, at rest: 2 µM
Forearm circulation [2]; dose reduced 2-logs, exercise
  forearm nitrite concentration, low dose, during exercise: 0.9 µM
Forearm circulation [2]; low dose, exercise
  venous nitrite level after low-dose infusion, during exercise: 909 ± 113 nM
Forearm circulation [2]; saline for 30 min after infusion, pre-nitrite value 3.94±0.38
  forearm blood flow 30 minutes after cessation of nitrite infusion: 4.79±0.37 mL/min per 100 mL tissue
Forearm circulation [2]; saline for 30 min after infusion, pre-nitrite value 89.2±3.5
  systemic blood pressure 30 minutes after cessation of nitrite infusion: 82.1±3.7 mm Hg
[3]; both, 36 μmol/min, nitrite level in the ipsilateral antecubital vein (regional forearm nitrite concentration), 36 μmol/min into brachial artery, 5 min, 18 healthy subjects
  concentration at 5 min: ~222000 nM
[3]; 0.36 μmol/min, mean venous nitrite level after low-dose infusion, at rest, low dose, five-minute infusion, baseline 176±17
  concentration at 5 min: 2560 ± 462 nM
[3]; 360 nmoles per minute, forearm nitrite concentration, low dose, at rest, dose reduced 2-logs (360 nmoles per minute)
  concentration at 5 min: ~2000 nM
[4]
  blood nitrite level after treatment: 727 ± 40 nM
Forearm circulation [5]
  vasodilatory effect in human forearm: no vasodilatory effects
